# Data: patent publication US8889732B2, “Fused heterocyclic compounds and thrombopoietin receptor activators” (Nissan Chemical Industries, Ltd., priority 2009, dated 2014)
# Molecular target: T1, human thrombopoietin receptor (c-mpl) (Homo sapiens, UniProt P40238)
# T1 construct: expressed in transfected cells
# T1 sequence (P40238 26-635): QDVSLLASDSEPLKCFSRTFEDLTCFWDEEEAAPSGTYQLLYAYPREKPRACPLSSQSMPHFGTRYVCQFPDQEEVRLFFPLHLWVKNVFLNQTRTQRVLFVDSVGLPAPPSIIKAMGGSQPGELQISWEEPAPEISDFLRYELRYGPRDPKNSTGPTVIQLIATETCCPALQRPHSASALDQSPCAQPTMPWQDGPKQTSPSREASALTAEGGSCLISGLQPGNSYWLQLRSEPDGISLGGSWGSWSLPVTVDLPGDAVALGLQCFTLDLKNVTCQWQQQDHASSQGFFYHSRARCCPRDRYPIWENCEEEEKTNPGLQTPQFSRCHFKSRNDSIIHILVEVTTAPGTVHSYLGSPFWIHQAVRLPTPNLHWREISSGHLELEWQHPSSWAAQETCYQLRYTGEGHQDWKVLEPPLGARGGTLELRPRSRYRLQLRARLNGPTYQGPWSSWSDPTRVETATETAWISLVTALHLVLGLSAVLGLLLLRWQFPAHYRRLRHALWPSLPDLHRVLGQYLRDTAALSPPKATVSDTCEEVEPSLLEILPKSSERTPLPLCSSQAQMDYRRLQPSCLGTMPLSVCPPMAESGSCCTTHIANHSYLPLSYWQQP
# Assay: Stimulation of proliferation of thrombopoietin-dependent cell line UT7/EPO-mpl (WST-8)
# Assay type: cell-based
# Settings: concentration yielding growth rate corresponding to 50% of growth of UT-7/EPO-mpl in the presence of 10 ng/mL TPO; 4 days incubation, WST-8
# Experimental: The responses of thrombopoietin receptor to the compounds of Synthetic Examples of the present invention were assayed using a human leukemic cell line, UT7/EPO-mpl.
# UT7/EPO-mpl is a stable transformed cell line obtained by introducing into human leukemic cell line UT7/EPO a vector that induces expression of human thrombopoietin receptor (c-mpl) under control of cytomegalovirus immediate-early promoter by the method of Takatoku et al. (J. Biol. Chem., 272:7259-7263 (1997)). […] These two cell lines were subcultured in IMDM (Invitrogen) containing 10% fetal bovine serum (Thermo Electron or BioWest) using a CO2 incubator (5% CO2, 37° C.).
# The subcultured cells described above were washed twice with PBS and suspended in IMDM containing 10% fetal bovine serum at a cell density of 6×10^4 cells/ml. The cell suspension was transferred to a 96-well tissue culture plate (CORNING) in 100-μl aliquots. Then either thrombopoietin (Pepro Tech EC) or the compound of Synthetic Examples dissolved in dimethyl sulfoxide were diluted 83-fold with IMDM containing 10% fetal bovine serum and added to the aforementioned cell suspension in 20-μl aliquots. The cell suspension was incubated in a CO2 incubator (5% CO2, 37° C.) for 4 days. Cell proliferation was assayed using WST-8 reagent (Kishida Chemical Co., Ltd.) according to instructions by the manufacturer. A 10-μl aliquot of 5 mM WST-8 reagent solution was added to each well of the tissue culture plate, and the plate was incubated at 37° C. for 4 hours. The formazan pigment generated was detected by measuring the absorbance at 450 nm with a 96-well microplate reader (Nihon Molecular Devices, Spectramax 190).
row,Compound,EC50
1,C/C(=N\NC(=S)Nc1ccc(C(=O)O)c(Cl)c1)c1csc(-c2ccc3c(c2)CCCC3)c1O [compound 43],4.8 nM
2,COC(=O)C1CCN(C(=S)N/N=C(\C)c2nn(C)c(-c3ccc4c(c3)CCC4)c2O)CC1 [compound 8],99.4 nM
3,C/C(=N\NC(=O)c1ccc(C(=O)N2CCCC2)s1)c1csc(-c2ccc3c(c2)CCO3)c1O [compound 21],99.7 nM
4,C/C(=N\NC(=S)Nc1ccc(-c2nnn[nH]2)cc1)c1csc(-c2ccc3c(c2)CCCC3)c1O [compound 62],4.08 nM
5,COC(=O)c1ccc(C(=O)N/N=C(\C)c2csc(-c3ccc4c(c3)CCC4)c2O)cc1[N+](=O)[O-] [compound 29],12.9 nM
6,C/C(=N\NC(=O)c1ccc(C(=O)NCCc2ccncc2)s1)c1csc(-c2ccc3c(c2)CCO3)c1O [compound 19],30 nM
7,C/C(=N\NC(=O)c1ccc(C(=O)N2CCCC2)s1)c1nn(C)c(-c2ccc3c(c2)CCC3)c1O [compound 4],11.1 nM
8,C/C(=N\NC(=S)Nc1ccc(C(=O)O)cc1)c1csc(-c2ccc3c(c2)CCC3)c1O [compound 58],5.76 nM
9,C/C(=N\NC(=O)c1ccc(-c2nnn[nH]2)cc1)c1csc(-c2ccc3c(c2)CCCC3)c1O [compound 67],5.23 nM
10,CCN(CC)C(=O)c1ccc(C(=O)N/N=C(\C)c2csc(-c3ccc4c(c3)CCC4)c2O)s1 [compound 27],6.44 nM
11,C/C(=N\NC(=S)Nc1ccc(-c2nnn[nH]2)cc1)c1csc(-c2ccc3c(c2)CCO3)c1O [compound 66],8.79 nM
12,COC(=O)c1ccc(C(=O)N/N=C(\C)c2csc(-c3ccc4c(c3)CCC4)c2O)s1 [compound 30],18.8 nM
13,COC(=O)c1ccc(C(=O)N/N=C(\C)c2csc(-c3ccc4c(c3)CCCC4)c2O)s1 [compound 36],9.46 nM
14,COC(=O)c1ccc(C(=O)N/N=C(\C)c2nn(C)c(-c3ccc4c(c3)CCC4)c2O)cc1[N+](=O)[O-] [compound 5],11.7 nM
15,C/C(=N\NC(=S)Nc1cccc(-c2nnn[nH]2)c1)c1csc(-c2ccc3c(c2)CCO3)c1O [compound 65],5.65 nM
16,C/C(=N\NC(=S)Nc1ccc(C(=O)O)cc1)c1nn(C)c(-c2ccc3c(c2)CCC3)c1O [compound 13],59.2 nM
17,C/C(=N\NC(=O)c1ccc(C(=O)N2CCCC2)s1)c1csc(-c2ccc3c(c2)CCC3)c1O [compound 28],5.84 nM
18,C/C(=N\NC(=O)c1ccc(-c2nnn[nH]2)cc1)c1csc(-c2ccc3c(c2)CCC3)c1O [compound 68],22.5 nM
19,C/C(=N\NC(=O)c1ccc(C(=O)NCc2ccncc2)s1)c1csc(-c2ccc3c(c2)CCO3)c1O [compound 18],5.4 nM

row,Compound,EC50
1,C/C(=N\NC(=S)Nc1ccc(C(=O)O)c(Cl)c1)c1nn(C)c(-c2ccc3c(c2)CCC3)c1O [compound 15],12.8 nM
2,C/C(=N\NC(=O)c1ccc(C(=O)O)c([N+](=O)[O-])c1)c1csc(-c2ccc3c(c2)CCO3)c1O [compound 47],55.6 nM
3,C/C(=N\NC(=O)c1ccc(C(=O)O)s1)c1nn(C)c(-c2ccc3c(c2)CCC3)c1O [compound 10],45.5 nM
4,C/C(=N\NC(=S)Nc1ccc(-c2nnn[nH]2)cc1)c1csc(-c2ccc3c(c2)CCC3)c1O [compound 64],4.42 nM
5,C/C(=N\NC(=S)Nc1cccc(C(=O)O)c1)c1nn(C)c(-c2ccc3c(c2)CCC3)c1O [compound 14],22.7 nM
6,COC(=O)c1ccc(C(=O)N/N=C(\C)c2nn(C)c(-c3ccc4c(c3)CCC4)c2O)cc1 [compound 7],43 nM
7,C/C(=N\NC(=S)Nc1ccc(C(=O)O)cc1)c1csc(-c2ccc3c(c2)CCO3)c1O [compound 56],57.3 nM
8,COC(=O)C1CCN(C(=S)N/N=C(\C)c2csc(-c3ccc4c(c3)CCCC4)c2O)CC1 [compound 42],48.8 nM
9,C/C(=N\NC(=S)Nc1ccc(C(=O)O)c(Cl)c1)c1csc(-c2ccc3c(c2)CCO3)c1O [compound 39],43 nM
10,C/C(=N\NC(=O)c1ccc(C(=O)O)cc1)c1csc(-c2ccc3c(c2)CCO3)c1O [compound 46],94.7 nM
11,COC(=O)C1CCN(C(=S)N/N=C(\C)c2csc(-c3ccc4c(c3)CCC4)c2O)CC1 [compound 40],52.4 nM
12,C/C(=N\NC(=S)N1CCC(C(=O)O)CC1)c1nn(C)c(-c2ccc3c(c2)CCC3)c1O [compound 9],76.5 nM
13,CCN(CC)C(=O)c1ccc(C(=O)N/N=C(\C)c2csc(-c3ccc4c(c3)CCCC4)c2O)s1 [compound 33],4.84 nM
14,C/C(=N\NC(=S)Nc1cccc(C(=O)O)c1)c1csc(-c2ccc3c(c2)CCCC3)c1O [compound 17],49.4 nM
15,CCN(CC)C(=O)c1ccc(C(=O)N/N=C(\C)c2nn(C)c(-c3ccc4c(c3)CCC4)c2O)s1 [compound 3],70.3 nM
16,C/C(=N\NC(=O)c1ccc(C(=O)O)cc1)c1nn(C)c(-c2ccc3c(c2)CCC3)c1O [compound 11],57.6 nM
17,COC(=O)c1ccc(C(=O)N/N=C(\C)c2nn(C)c(-c3ccc4c(c3)CCC4)c2O)s1 [compound 6],18.9 nM
18,COC(=O)c1ccc(C(=O)N/N=C(\C)c2csc(-c3ccc4c(c3)CCC4)c2O)cc1 [compound 31],52.9 nM
19,C/C(=N\NC(=S)Nc1cccc(C(=O)O)c1)c1csc(-c2ccc3c(c2)CCC3)c1O [compound 59],53.1 nM

# Results, then the molecule that gave them:
row,EC50,Compound
1,1.55 nM,C/C(=N\NC(=O)c1ccc(C(=O)NCc2ccncc2)s1)c1nn(C)c(-c2ccc3c(c2)CCC3)c1O [compound 1]
2,0.451 nM,C/C(=N\NC(=O)c1ccc(C(=O)O)c([N+](=O)[O-])c1)c1csc(-c2ccc3c(c2)CCC3)c1O [compound 51]
3,1.25 nM,C/C(=N\NC(=O)c1ccc(C(=O)O)s1)c1csc(-c2ccc3c(c2)CCCC3)c1O [compound 53]
4,2.43 nM,C/C(=N\NC(=O)c1ccc(C(=O)N2CCCC2)s1)c1csc(-c2ccc3c(c2)CCCC3)c1O [compound 34]
5,3.28 nM,C/C(=N\NC(=O)c1ccc(C(=O)O)s1)c1csc(-c2ccc3c(c2)CCC3)c1O [compound 49]
6,0.357 nM,C/C(=N\NC(=O)c1ccc(C(=O)NCc2ccc(C(=O)NCCO)cc2)s1)c1csc(-c2ccc3c(c2)CCCC3)c1O [compound 69]
7,0.452 nM,C/C(=N\NC(=O)c1ccc(C(=O)NCc2ccncc2)s1)c1csc(-c2ccc3c(c2)CCCC3)c1O [compound 32]
8,3.99 nM,C/C(=N\NC(=S)Nc1cccc(-c2nnn[nH]2)c1)c1csc(-c2ccc3c(c2)CCC3)c1O [compound 63]
9,4.06 nM,C/C(=N\NC(=S)N1CCC(C(=O)O)CC1)c1csc(-c2ccc3c(c2)CCC3)c1O [compound 48]
10,0.382 nM,C/C(=N\NC(=O)c1ccc(C(=O)NCc2ccc(C(=O)NCCO)cc2)s1)c1csc(-c2ccc3c(c2)CCC3)c1O [compound 70]
11,3.4 nM,C/C(=N\NC(=O)c1ccc(C(=O)NCCc2ccncc2)s1)c1nn(C)c(-c2ccc3c(c2)CCC3)c1O [compound 2]
12,3.97 nM,C/C(=N\NC(=O)c1ccc(C(=O)NCc2ccc(C(=O)NCCO)cc2)s1)c1csc(-c2ccc3c(c2)CCO3)c1O [compound 71]
13,1.73 nM,C/C(=N\NC(=O)c1ccc(C(=O)O)c([N+](=O)[O-])c1)c1nn(C)c(-c2ccc3c(c2)CCC3)c1O [compound 12]
14,0.867 nM,C/C(=N\NC(=O)c1ccc(C(=O)NCCc2ccncc2)s1)c1csc(-c2ccc3c(c2)CCC3)c1O [compound 26]
15,2.99 nM,C/C(=N\NC(=O)c1ccc(C(=O)O)cc1)c1csc(-c2ccc3c(c2)CCCC3)c1O [compound 54]
16,0.523 nM,C/C(=N\NC(=O)c1ccc(C(=O)NCc2ccncc2)s1)c1csc(-c2ccc3c(c2)CCC3)c1O [compound 25]
17,1.76 nM,C/C(=N\NC(=O)c1ccc(C(=O)O)cc1)c1csc(-c2ccc3c(c2)CCC3)c1O [compound 50]
18,0.396 nM,C/C(=N\NC(=O)c1ccc(C(=O)O)c([N+](=O)[O-])c1)c1csc(-c2ccc3c(c2)CCCC3)c1O [compound 55]
19,3.71 nM,C/C(=N\NC(=S)N1CCC(C(=O)O)CC1)c1csc(-c2ccc3c(c2)CCCC3)c1O [compound 52]
20,0.496 nM,C/C(=N\NC(=O)c1ccc(C(=O)NCCc2ccncc2)s1)c1csc(-c2ccc3c(c2)CCCC3)c1O [compound 16]
